The NIST ThermoML archive (doi:10.1021/je301147k)
± gives the expanded uncertainty stated by the source.

Assay: mn = molality of the nth substance listed, in mol/kg
Settings: for electrical conductivity: 100 kPa, Liquid, CyberScan CON1500 Bench Conductivity Meter; for surface tension liquid-gas: 298.2 K, Ring tensiometer

CCCCCCCCCCCCn1cc[n+](C)c1.[Br-] [1-dodecyl-3-methylimidazolium bromide] + O
electrical conductivity [S/m]
Settings	288.15 K	293.15 K	298.15 K	303.15 K
m1 = 0.001	0.00769 ± 0.00015	0.00898 ± 0.00017	0.01 ± 0.00019	0.0112 ± 0.00021
m1 = 0.002	0.0157 ± 0.00029	0.0181 ± 0.00033	0.0198 ± 0.00037	0.0223 ± 0.00041
m1 = 0.003	0.0224 ± 0.00042	0.0261 ± 0.00048	0.029 ± 0.00054	0.032 ± 0.00059
m1 = 0.004	0.0302 ± 0.00057	0.0345 ± 0.0006	0.0386 ± 0.00072	0.0427 ± 0.00079
m1 = 0.005	0.0379 ± 0.0007	0.043 ± 0.00079	0.048 ± 0.00088	0.0519 ± 0.00096
m1 = 0.006	0.0445 ± 0.00083	0.0504 ± 0.00093	0.0563 ± 0.001	0.0626 ± 0.0012
m1 = 0.007	0.052 ± 0.00097	0.0589 ± 0.0011	0.0655 ± 0.0012	0.0728 ± 0.0014
m1 = 0.008	0.0589 ± 0.0011	0.0664 ± 0.0012	0.0741 ± 0.0014	0.0824 ± 0.0015
m1 = 0.009	0.0657 ± 0.0012	0.074 ± 0.0014	0.0823 ± 0.0015	0.0916 ± 0.0017
m1 = 0.01	0.0717 ± 0.0013	0.0814 ± 0.0014	0.0909 ± 0.0016	0.101 ± 0.0018
m1 = 0.011	0.0758 ± 0.0013	0.0853 ± 0.0014	0.0963 ± 0.0016	0.107 ± 0.0018
m1 = 0.012	0.0776 ± 0.0013	0.0876 ± 0.0014	0.0986 ± 0.0016	0.111 ± 0.0018
m1 = 0.013	0.0799 ± 0.0013	0.0907 ± 0.0015	0.102 ± 0.0017	0.116 ± 0.0019
m1 = 0.014	0.0814 ± 0.0013	0.0922 ± 0.0015	0.104 ± 0.0017	0.118 ± 0.0019
m1 = 0.015	0.0837 ± 0.0014	0.0947 ± 0.0015	0.107 ± 0.0018	0.122 ± 0.002
m1 = 0.016	0.0854 ± 0.0014	0.0966 ± 0.0016	0.11 ± 0.0018	0.124 ± 0.002
m1 = 0.017	0.0874 ± 0.0014	0.0986 ± 0.0016	0.112 ± 0.0018	0.127 ± 0.0021
m1 = 0.018	0.0882 ± 0.0014	0.0998 ± 0.0016	0.113 ± 0.0018	0.129 ± 0.0021
m1 = 0.019	0.0893 ± 0.0014	0.101 ± 0.0017	0.115 ± 0.0019	0.131 ± 0.0021
m1 = 0.02	0.0913 ± 0.0015	0.104 ± 0.0017	0.118 ± 0.0019	0.134 ± 0.0022
m1 = 0.021	0.0923 ± 0.0015	0.106 ± 0.0017	0.12 ± 0.002	0.136 ± 0.0022
m1 = 0.022	0.0935 ± 0.0015	0.107 ± 0.0017	0.122 ± 0.002	0.139 ± 0.0023
m1 = 0.023	0.0948 ± 0.0015	0.109 ± 0.0018	0.125 ± 0.002	0.141 ± 0.0023
m1 = 0.024	0.0964 ± 0.0016	0.111 ± 0.0018	0.127 ± 0.0021	0.144 ± 0.0024
m1 = 0.025	0.0985 ± 0.0016	0.112 ± 0.0019	0.129 ± 0.0021	0.146 ± 0.0024

Settings	surface tension liquid-gas [mN/m]
m1 = 0.0005	68.38 ± 1.9
m1 = 0.001	62.44 ± 1.8
m1 = 0.002	58.12 ± 1.6
m1 = 0.004	51.39 ± 1.4
m1 = 0.006	43.7 ± 1.2
m1 = 0.008	40.35 ± 1.1
m1 = 0.01	36.83 ± 1.1
m1 = 0.012	36.51 ± 1
m1 = 0.014	36.56 ± 1
m1 = 0.016	36.65 ± 1
m1 = 0.018	36.6 ± 1
m1 = 0.02	36.57 ± 1
m1 = 0.025	36.54 ± 1
m1 = 0.03	36.48 ± 1
m1 = 0.04	36.67 ± 1
m1 = 0.05	36.67 ± 1
